Laboratory results: patent US10517803B2, “Individual's sensitivity to fluoride poisoning” (priority 2017, dated 2019)

Key:
[1] = tested on: people; settings: most people; cited from earlier work
[2] = tested on: rats; assay: Median lethal dose (LD50) orally in rats; format: in vivo; settings: extrapolated from oral rat LD50 to a 100 kg adult
[3] = tested on: rats; settings: orally in rats; cited from earlier work

| Structure (SMILES) | highest level of daily nutrient intake likely to pose no risk of adverse health effects [1] [mg/day] | median lethal dose (LD50), corresponding amount for a 100 kg adult [2] [g] | median lethal dose (LD50) [3] [mg/kg] |
| --- | --- | --- | --- |
| F [Fluoride] | 10 |  |  |
| F[Si-2](F)(F)(F)(F)F.[Na+].[Na+] [sodium fluorosilicate] |  | 12.5 | 125 |
